Our source for the IC50 values is patent US7087622B2, “Pyridone compounds as inhibitors of bacterial type III protein secreation systems” (priority 2004, dated 2006).

What all share (format): cell-based
For test [1], the system named is SPI1 type III protein secretion system (SopE-Bla secretion). Kind of test: Primary assay: Type III protein secretion of the chimeric SopE-Bla polypeptide by Salmonella enterica (nitrocefin hydrolysis). The following applies: read-out: SopE IC50(uM). The source says: Primary assay: Type III protein secretion of the chimeric SopÉ-Bla polypeptide by Salmonella enterica. This procedure is a cell-based assay that measures the type III-dependent secretion by Salmonella enterica of a plasmid-encoded chimeric polypeptide whose synthesis can be regulated, and which is endowed with an enzymatic activity that can be monitored calorimetrically by hydrolysis of a substrate that is unable to penetrate into the bacterial cytoplasm within the time constraints of the reaction. Thus, the colorimetric reaction is not influenced by SopÉ-Bla polypeptide in the bacterial cytoplasm. Instead, it effectively measures the amount of polypeptide that has been secreted from the S. enterica cytoplasm to the extracellular medium via type III system protein secretion.
The SopÉ-Bla recombinant polypeptide consists of two functionally distinct domains spliced together. The N-terminus domain is encoded by a polynucleotide region specifying the signal for type III secretion of the SopE polypeptide of S. enterica, an effector of the SPI1 type III protein secretion system. The C-terminus domain of SopÉ-Bla consists of a 263 amino acid peptide sequence that corresponds to the TEM-1 β-lactamase expressed by plasmid pBR322 but without its N-terminal signal sequence. The TEM-1 β-lactamase part of the SopÉ-Bla chimeric polypeptide is used as a reporter enzyme. It is capable of hydrolyzing nitrocefin resulting in a product whose accumulation can be monitored by colorimetric detection. The secretion of the SopÉ-Bla chimeric polypeptide from the cytoplasm to the extracellular medium is dependent on type III protein secretion.
For this procedure, cells grown under conditions known to favor a functional SPI1 secretion system are induced for expression of the SopÉ-Bla protein and grown either in the presence or in the absence of putative inhibitors for determined time. Nitrocefin is then added to the various cultures and its hydrolysis are used for quantitation. An inhibitor of Type III protein secretion is generally a compound that reduces the signal of the enzymatic reaction by decreasing the amount of SopÉ-Bla secreted into the extracellular medium.

Test [2] concerns SPI1 type III protein secretion system (SipB secretion). Kind of test: Secondary assay: Type III-dependent protein secretion of the SipB polypeptide by S. enterica (immunoblot). The following applies: Salmonella enterica, read-out: SipB IC50(uM). As to the method: Secondary assay: Type III-dependent protein secretion of the SipB polypeptide by S. enterica. The SipB protein of S. enterica is another effector of the SPI1 type III protein secretion system from S. enterica. In this cell-based procedure, the Type III-dependent secretion of SipB from the bacterial cytoplasm to the extracellular medium was measured through its reactivity with a cognate mouse monoclonal.
Salmonella enterica cells growing either in the presence or in the absence of inhibitors are induced for the production of SipB. Following an established period of growth the cells are sedimented and the amount of SipB present in the supernatant is quantified with a scanning imager following application of immunoblot techniques. Detection may employ an anti-SipB mouse monoclonal antibody (e.g., obtained from Jorge Galan, SUNY at Stony Brook, N.Y.) followed by treatment with commercially available sheep anti-mouse polyclonal antibody conjugated with horseradish peroxidase. Thereafter the membrane is treated with a peroxidase chemiluminescent substrate and exposed to film for an appropriate exposure time. Inhibition may be measured relative to untreated controls.
(In general: In western blotting, separated proteins are transferred to a membrane and probed.)

The subject of test [3] is type III protein secretion system of P. aeruginosa PA103 (ExoU secretion). Kind of test: Tertiary assay: Type III-dependent secretion of ExoU by P. aeruginosa PA103 (SDS-PAGE band quantitation). The following applies: Pseudomonas aeruginosa, ExoU secreted into extracellular medium. The source says:
Tertiary assay: inhibition of Type III protein secretion of effectors from a Pseudomonas aeruginosa system. Type III protein secretion is used by P. aeruginosa to secrete several essential virulence determinants. One effector of the type III protein secretion system of P. aeruginosa PA103 is the virulence determinants ExoU.
The amount of Type III-dependent secretion of ExoU by P. aeruginosa PA103 can be determined in a cell-based assay by quantification of the 73.9 kDa ExoU protein secreted into the extracellular medium. Such quantitation can be achieved by growing strain PA103 in a deferrated medium in the presence of nitrilotriacetic acid (an inducer of Type III protein secretion in P. aeruginosa) and either in the presence or absence of putative inhibitors. After a prolonged growth period, the cells are sedimented and the supernatants concentrated by ammonium sulfate precipitation. The proteins in the resuspended pellets are separated by electrophoresis on SDS-polyacrylamide gels. After staining gels with Colloidal Blue™, the 73.9 kDa ExoU band is quantitated by scanning through an imager. The effects of inhibitors on the intensity of the ExoU band may be measured relative to that of untreated controls.

In the case of `O=C(Nc1cc(-c2ccc(Cl)c(Cl)c2)cn(C(Cc2ccc(Cl)cc2)C(=O)O)c1=O)c1ccc(-c2ccccc2)cc1` (stereo not drawn) [Compound 34, 2-[3-[(Biphenyl-4-carbonyl)amino]-5-(3,4-dichlorophenyl)-2-oxo-2H-pyridin-1-yl]-3-(4-chlorophenyl)propionic acid], the 50% inhibitory concentration (IC50) – broadly, the point on the concentration scale where inhibition reaches its midpoint – in test [1] is 8.7 µM; in test [2], 24.8 µM; in test [3], above 100 µM.
Consider `O=C(Nc1cc(-c2ccc(F)cc2)cn(C(Cc2ccc(Cl)cc2)C(=O)O)c1=O)c1ccc(-c2ccccc2)cc1` (stereo not drawn) [Compound 35, 2-[3-[(Biphenyl-4-carbonyl)amino]-5-(4-fluorophenyl)-2-oxo-2H-pyridin-1-yl]-3-(4-chlorophenyl)propionic acid], for which the values for the IC50 in test [1], in test [2] and in test [3] were 2.3 µM, 58.4 µM and 7.5 µM, respectively.
For `O=C(Nc1cc(-c2ccc(C(F)(F)F)cc2)cn(C(Cc2ccc(Cl)cc2)C(=O)O)c1=O)c1ccc(-c2ccccc2)cc1` (stereo not drawn) [Compound 38, 2-[3-[(Biphenyl-4-carbonyl)amino]-2-oxo-5-(4-trifluoromethylphenyl)-2H-pyridin-1-yl]-3-(4-chlorophenyl)propionic acid], in that order: 1.2 µM, 3.1 µM and 21.3 µM.
`O=C(Nc1cc(-c2ccc(O)cc2)cn(C(Cc2ccc(Cl)cc2)C(=O)O)c1=O)c1ccc(-c2ccccc2)cc1` (stereo not drawn) [Compound 39, 2-[3-[(Biphenyl-4-carbonyl)amino]-5-(4-hydroxyphenyl)-2-oxo-2H-pyridin-1-yl]-3-(4-chlorophenyl)propionic acid]: the IC50 is 3.6 µM in test [1], above 100 µM in test [2] and 80.5 µM in test [3].
For the compound `CN(C)c1ccc(-c2cc(NC(=O)c3ccc(-c4ccccc4)cc3)c(=O)n(C(Cc3ccc(Cl)cc3)C(=O)O)c2)cc1` (stereo not drawn) [Compound 40, 2-[3-[(Biphenyl-4-carbonyl)amino]-5-(4-dimethylaminophenyl)-2-oxo-2H-pyridin-1-yl]-3-(4-chlorophenyl)propionic acid], the values for the IC50 in test [1], in test [2] and in test [3] were 2.8 µM, 10.2 µM and 56.4 µM, respectively.
For `COc1ccc(-c2cc(NC(=O)c3ccc(-c4ccccc4)cc3)c(=O)n(C(Cc3ccc(Cl)cc3)C(=O)O)c2)cc1OC` (stereo not drawn) [Compound 41, 2-[3-[(Biphenyl-4-carbonyl)amino]-5-(3,4-dimethoxyphenyl)-2-oxo-2H-pyridin-1-yl]-3-(4-chlorophenyl)propionic acid], in that order: 3.2 µM, 15.9 µM and 67.4 µM.
With `O=C(Nc1cc(-c2ccc3ccccc3c2)cn(C(Cc2ccc(Cl)cc2)C(=O)O)c1=O)c1ccc(-c2ccccc2)cc1` (stereo not drawn) [Compound 42, 2-{3-[(Biphenyl-4-carbonyl)amino]-5-naphthalen-2-yl-2-oxo-2H-pyridin-1-yl}-3-(4-chlorophenyl)propionic acid], the figures for the IC50 in test [1], in test [2] and in test [3] were 1.1 µM, 76.2 µM and 41.3 µM, respectively.
Regarding `O=C(Nc1cc(-c2ccc3[nH]ccc3c2)cn(C(Cc2ccc(Cl)cc2)C(=O)O)c1=O)c1ccc(-c2ccccc2)cc1` (stereo not drawn) [Compound 43, 2-[3-[(Biphenyl-4-carbonyl)amino]-5-(1H-indol-5-yl)-2-oxo-2H-pyridin-1-yl]-3-(4-chlorophenyl)propionic acid], the half-inhibitory concentration (IC50) in test [1] was 1.9 µM; in test [2] it was above 100 µM; in test [3], 28 µM.
Turning to `O=C(Nc1cc(-c2ccsc2)cn(C(Cc2ccc(Cl)cc2)C(=O)O)c1=O)c1ccc(-c2ccccc2)cc1` (stereo not drawn) [Compound 44, 2-{3-[(Biphenyl-4-carbonyl)amino]-2-oxo-5-thiophen-3-yl-2H-pyridin-1-yl}-3-(4-chlorophenyl)propionic acid], the values for the IC50 in test [1], in test [2] and in test [3] were 2.8 µM, above 100 µM and above 100 µM, respectively.
Consider `O=C(Nc1cc(-c2ccoc2)cn(C(Cc2ccc(Cl)cc2)C(=O)O)c1=O)c1ccc(-c2ccccc2)cc1` (stereo not drawn) [Compound 45, 2-{3-[(Biphenyl-4-carbonyl)amino]-5-furan-3-yl-2-oxo-2H-pyridin-1-yl}-3-(4-chlorophenyl)propionic acid], for which the IC50 was 4 µM in test [1], above 100 µM in test [2] and 49.4 µM in test [3].
`O=C(Nc1cc(-c2ccc(-c3ccccc3)cc2)cn(C(Cc2ccc(Cl)cc2)C(=O)O)c1=O)c1ccc(-c2ccccc2)cc1` (stereo not drawn) [Compound 47, 2-{3-[(Biphenyl-4-carbonyl)amino]-5-biphenyl-4-yl-2-oxo-2H-pyridin-1-yl}-3-(4-chlorophenyl)propionic acid]: the values for the IC50 in test [1], in test [2] and in test [3] were 1.4 µM, 55 µM and 39.4 µM, respectively.
Regarding `O=C(Nc1cc(-c2ccc(Oc3ccccc3)cc2)cn(C(Cc2ccc(Cl)cc2)C(=O)O)c1=O)c1ccc(-c2ccccc2)cc1` (stereo not drawn) [Compound 48, 2-[3-[(Biphenyl-4-carbonyl)amino]-2-oxo-5-(4-phenoxyphenyl)-2H-pyridin-1-yl]-3-(4-chlorophenyl)propionic acid], the half-maximal inhibitory concentration (IC50) in test [1] was found to be 1.2 µM; in test [2], 35 µM; in test [3], 33.2 µM.
Take `O=C(Nc1cc(-c2ccccc2Oc2ccccc2)cn(C(Cc2ccc(Cl)cc2)C(=O)O)c1=O)c1ccc(-c2ccccc2)cc1` (stereo not drawn) [Compound 49, 2-[3-[(Biphenyl-4-carbonyl)amino]-2-oxo-5-(2-phenoxyphenyl)-2H-pyridin-1-yl]-3-(4-chlorophenyl)propionic acid]: the IC50 in test [1] was below 0.8 µM; in test [2], 48 µM; in test [3] it was 46.3 µM.
Turning to `O=C(Nc1cc(-c2cccs2)cn(C(Cc2ccc(Cl)cc2)C(=O)O)c1=O)c1ccc(-c2ccccc2)cc1` (stereo not drawn) [Compound 50, 2-{3-[(Biphenyl-4-carbonyl)amino]-2-oxo-5-thiophen-2-yl-2H-pyridin-1-yl}-3-(4-chlorophenyl)propionic acid], the figures for the half-maximal inhibitory concentration (IC50) in test [1], in test [2] and in test [3] were 6.4 µM, 27 µM and 51.4 µM, respectively.
For `O=C(Nc1cc(-c2ccc(F)cc2)cn(C(Cc2ccc(Cl)cc2)C(=O)O)c1=O)c1ccc(Oc2ccccc2)cc1` (stereo not drawn) [Compound 51, 3-(4-Chlorophenyl)-2-[5-(4-fluorophenyl)-2-oxo-3-(4-phenoxybenzoylamino)-2H-pyridin 1-yl]propionic acid], the values for the IC50 in test [1], in test [2] and in test [3] were 4.9 µM, above 100 µM and above 100 µM, respectively.
Turning to `CN(C)c1ccc(-c2cc(NC(=O)c3ccc(Oc4ccccc4)cc3)c(=O)n(C(Cc3ccc(Cl)cc3)C(=O)O)c2)cc1` (stereo not drawn) [Compound 53, 3-(4-Chlorophenyl)-2-[5-(4-dimethylaminophenyl)-2-oxo-3-(4-phenoxy-benzoylamino)-2H-pyridin-1-yl]propionic acid], the IC50 in test [1] was 3.6 µM; in test [2], above 100 µM; in test [3] it was 49 µM.
